Results reported in patent EP4292827A1, “INK COMPOSITION, ARTICLE, AND PRODUCTION METHOD THEREFOR” (Zeon Corporation, priority 2021, dated 2022).
Read-outs that look alike come from different tables or passages of the source.

How the values were obtained:
[1] = standard compounds with known logP values described in JIS 7260-117:2006, used for calibration curve; cited from earlier work

Row | Compound | chromatographic logP (physchem) | logP [1] | also measured
1 | C=CC(=O)OCCCCCCCCOC(=O)Oc1ccc(C(=O)Oc2ccc(OC(=O)c3ccc(OC(=O)OCCCCCCCCOC(=O)C=C)cc3)c(C)c2)cc1 [Example X4] | 5.11 |  | 
2 | C=CC(=O)OCCOc1ccc(-c2ccc(C#N)cc2)cc1 [Example X2] | 1.75 |  | 
3 | CC(=O)Nc1ccccc1 [Acetanilide] |  | 1.0 | 
4 | c1ccc(N(c2ccccc2)c2ccccc2)cc1 [Triphenylamine] |  | 5.7 | 
5 | C=CC(=O)OCCCCCCOc1ccc(C(=O)Oc2ccc(/C=N/N=C/c3ccc(OC(=O)c4ccc(OCCCCCCOC(=O)C=C)cc4)c(C(=O)OC)c3)cc2)cc1 [Example X1] |  |  | chromatographic logP (physchem; hplc): 6.01
6 | C=CC(=O)OCCCCOC(=O)Oc1ccc(C(=O)Oc2ccc(C(=O)O[C@H]3CO[C@@H]4[C@H]3OC[C@H]4OC(=O)c3ccc(OC(=O)c4ccc(OC(=O)OCCCCOC(=O)C=C)cc4)cc3)cc2)cc1 [Example X3] | 3.58 |  | 
